Data taken from patent publication US20250034200A1, “Prodrugs of Neurosteroid Analogs and Uses Thereof” (priority 2021, published 2025).
Counter-ions that a name gives are not always drawn.

Tests used:
[1] = Plasma stability assay (LC-MS/MS); format: in vitro ADME; settings: human plasma, 37° C., 3 μM; for half-life: read-out: Plasma t1/2 (converted)
Method: Procaine and procainamide were purchased from Sigma Aldrich. HPLC-grade acetonitrile, water, methanol, and formic acid were purchased from Fisher Scientific. Human plasma (Cat. No. […]2N) was obtained from BIOIVT, and PBS (1×Dulbecco's, pH 7.4) from Thermo Fisher Scientific.
Test compounds were dissolved in DMSO to make a stock solution of 10 mM and then diluted to 500 μM in buffer or 70% methanol. Human plasma was thawed at ambient temperature and aliquoted (994.0 μL) to a 1.5 mL Eppendorf tube in duplicates (vials A and B) for each compound. The plasma was incubated at 37° C. for 10 min in an incubator shaker at 150 RPM; the reaction was initiated by addition of the test compound (6.0 μL), followed by vortex mixing. The total reaction volume was 1000 μL, the final organic solvent concentrations were […] (when 70% methanol was used for dilution) and 0.03% DMSO, and the final concentration of the test compound was 3 μM. The spiked plasma samples were incubated at 37° C. for 4 h. The reactions were terminated at time point 0, 15, 30, 60, 120, 180, and 240 min by taking a 100 μL aliquot from the test incubation mixture and immediately quenching it by adding it into ice-cold acetonitrile or methanol (150 μL) containing 2 μM internal standard (ISTD), followed by vortex mixing. The ISTD was d5-7-ethoxy coumarin. The samples were then centrifuged at 15000 RPM for 25 min at 4° C., and the supernatant was transferred to an LC-MS vial for analysis by LC-MS/MS. Each time point was tested in duplicates followed by in-between blank washes to avoid carryover and to equilibrate the column.
Procaine (poor plasma stability) and procainamide (good plasma stability) were used as controls at the same concentration as that of the test compound. These controls were run in parallel to test the assay's competency. Matrix blank was prepared by adding acetonitrile or methanol containing ISTD to plasma samples without any of the test or control compounds. Also, an additional control sample was made to simply monitor compound degradation in PBS buffer.
Below is a summary of samples prepared for a given test compound in a typical plasma stability assay: • Test compound (TC): 994 μL human plasma+6.0 μL TC (Vial A) 994 μL human plasma+6.0 μL TC (Vial B) • Control: 596 μL human plasma+3.6 μL (procaine+procainamide) • Blank matrix: 500 μL PBS buffer+100 μL human plasma • Additional control: 142 μL PBS buffer+0.9 μL TC • Quenching mixture: 150 μL acetonitrile or methanol with ISTD (2 μM) • Final volume: 250 μL (100 μL from the incubation mixture+150 μL quenching mixture; final ISTD conc.: 1.2 μM)
LC-MS/MS analysis was performed using Agilent 1260 Infinity II HPLC, coupled with an Agilent G6460 triple quadrupole mass spectrometer (Agilent Technologies, USA). The data were acquired and processed using the Agilent 6460 Quantitative Analysis data processing software.
Reverse-phase HPLC separation for each compound was achieved on an Agilent InfinityLab Poroshell 120 C18 column (2.1×50 mm, 2.7 μm) with a mobile phase composed of methanol/water with 0.1% formic acid or acetonitrile/water with 0.1% formic acid at a flow rate of 0.5 mL/min. Each method was developed in the presence of the ISTD. The column temperature was maintained at 40° C. The detection was operated using the Agilent Jet-Stream electrospray positive ionization under the multiple reaction monitoring mode. The mass spec conditions were as follows: dwell time 100 ms; gas flow 10 L/min; nebulizer pressure 45 psi; delta EMV 200 V.
Plots of time (x-axis) vs. the natural logarithm of percent parent remaining (y-axis) were subsequently constructed to determine the slope. Finally, the plasma stability was evaluated using the following equation: […]

[2] = Aqueous stability assay (HPLC, pseudo first-order half-life); format: physicochemical; settings: DPBS pH 7.0-7.3, 1 mg/mL, room temperature; for half-life at 1 mg/mL / half-life: buffer, read-out: PBS t1/2 (converted)
Method: Aqueous stability experiments were performed on an Agilent 1100 HPLC equipped with an Agilent 1200 autosampler. HPLC grade solvents were exclusively used during analysis, with acetonitrile being purchased from Sigma Aldrich, and water and formic acid provided by Fisher Scientific. […]
[…] All mixtures were then sonicated for 5 min or stirred until complete dissolution was achieved. Any precipitate observed in sample solutions was filtered with a PTFE syringe filter prior to analysis. Immediately after sample preparation, injection by the HPLC autosampler was performed, which was recorded as the initial time point (t=0 min). Samples were then kept in the autosampler at room temperature and injected at designated intervals without additional filtration or sample modification. Next, the area of the parent peak in each chromatogram was determined by automated integration in the Agilent ChemStation software. Pseudo first-order half-lives were then ascertained by calculating the percent of the parent compound remaining after each time point. Plots of time (x-axis) vs. the natural logarithm of percent parent remaining (y-axis) were subsequently constructed to determine the slope. Finally, the aqueous stability was evaluated using the following equation:
The HPLC conditions were as follows: injection volume, 1 μL; column temperature: 40° C.; detector: 254 nm; stationary phase: Zorbax Eclipse XDB-C18 (4.6×150 mm, 5 μm); flow rate: 1 mL/min; mobile phase: 80-95% acetonitrile in H2O (0.1% formic acid).

## C/C(=N\OC(=O)N(C)Cc1ccccn1)[C@H]1CC[C@H]2[C@@H]3CCC4=CC(=O)CC[C@]4(C)[C@H]3CC[C@]12C [compound 36, (8S,9S,10R,13S,14S,17S)-10,13-dimethyl-17-((E)-1-(((methyl(pyridin-2-ylmethyl)carbamoyl)oxy)imino)ethyl)-1,2,6,7,8,9,10,11,12,13,14,15,16,17-tetradecahydro-3H-cyclopenta[a]phenanthren-3-one]
[1]
  half-life: 222 h

## C/C(=N\OC(=O)N(C)CCNCCF)[C@H]1CC[C@H]2[C@@H]3CCC4=CC(=O)CC[C@]4(C)[C@H]3CC[C@]12C.O=C(O)C(F)(F)F [32o, (E)-2-((8S,9S,10R,13S,14S,17S)-10,13-dimethyl-3-oxo-2,3,6,7,8,9,10,11,12,13,14,15,16,17-tetradecahydro-1H-cyclopenta[a]phenanthren-17-yl)-11-fluoro-6-methyl-4-oxa-3,6,9-triazaundec-2-en-5-one 2,2,2-trifluoroacetate]
[2]
  half-life at 1 mg/mL: 36.1 ± 2.4 h
[1]
  Plasma t1/2: 2.2 h

## CNCCN(CC(=O)O)C(=O)O/N=C(\C)[C@H]1CC[C@H]2[C@@H]3CCC4=CC(=O)CC[C@]4(C)[C@H]3CC[C@]12C.O=C(O)C(F)(F)F [53g, N-(((((E)-1-((8S,9S,10R,13S,14S,17S)-10,13-dimethyl-3-oxo-2,3,6,7,8,9,10,11,12,13,14,15,16,17-tetradecahydro-1H-cyclopenta[a]phenanthren-17-yl)ethylidene)amino)oxy)carbonyl)-N-(2-(methylamino)ethyl)glycine 2,2,2-trifluoroacetate]
[2]
  half-life: > 24 h

## C/C(=N\OC(=O)N(C)CCNCCOC(F)(F)F)[C@H]1CC[C@H]2[C@@H]3CCC4=CC(=O)CC[C@]4(C)[C@H]3CC[C@]12C.Cl [compound 41, (E)-12-((8S,9S,10R,13S,14S,17S)-10,13-dimethyl-3-oxo-2,3,6,7,8,9,10,11,12,13,14,15,16,17-tetradecahydro-1H-cyclopenta[a]phenanthren-17-yl)-1,1,1-trifluoro-8-methyl-2,10-dioxa-5,8,11-triazatridec-11-en-9-one hydrochloride]
[2]
  half-life: 28.5 ± 1.8 h
[1]
  half-life: 1.1 h

## C/C(=N\OC(=O)OCCN)[C@H]1CC[C@H]2[C@@H]3CCC4=CC(=O)CC[C@]4(C)[C@H]3CC[C@]12C [32f, (8S,9S,10R,13S,14S,17S)-17-((E)-1-((((2-aminoethoxy)carbonyl)oxy)imino)ethyl)-10,13-dimethyl-1,2,6,7,8,9,10,11,12,13,14,15,16,17-tetradecahydro-3H-cyclopenta[a]phenanthren-3-one hydrochloride]
[2]
  half-life at 1 mg/mL: 0.11 ± 0.01 h

## C/C(=N\OC(=O)N(CCNC(C)(C)C)C(C)(C)C)[C@H]1CC[C@H]2[C@@H]3CCC4=CC(=O)CC[C@]4(C)[C@H]3CC[C@]12C.Cl [54c, (E)-6-(tert-butyl)-2-((8S,9S,10R,13S,14S,17S)-10,13-dimethyl-3-oxo-2,3,6,7,8,9,10,11,12,13,14,15,16,17-tetradecahydro-1H-cyclopenta[a]phenanthren-17-yl)-10,10-dimethyl-4-oxa-3,6,9-triazaundec-2-en-5-one hydrochloride]
[2]
  half-life: > 24 h
[1]; 2 h
  Plasma % rmn at 2 h: 93%

## C/C(=N\OC(=O)N(C)C[C@@H]1CCCCN1)[C@H]1CCC2[C@@H]3CCC4=CC(=O)CC[C@]4(C)[C@H]3CC[C@@]21C.Cl (stereo partly drawn) [32l, (8S,9S,10R,13S,17S)-10,13-dimethyl-17-((E)-1-(((methyl(((S)-piperidin-2-yl)methyl)carbamoyl)oxy)imino)ethyl)-1,2,6,7,8,9,10,11,12,13,14,15,16,17-tetradecahydro-3H-cyclopenta[a]phenanthren-3-one hydrochloride]
[2]; d (days)
  half-life: 475 h
[1]
  half-life: 6.8 h

## CNCC(C)(C)CN(C)C(=O)O/N=C(\C)[C@H]1CCC2[C@@H]3CCC4=CC(=O)CC[C@]4(C)[C@H]3CC[C@@]21C.Cl (stereo partly drawn) [compound 40, (E)-10-((8S,9S,10R,13S,17S)-10,13-dimethyl-3-oxo-2,3,6,7,8,9,10,11,12,13,14,15,16,17-tetradecahydro-1H-cyclopenta[a]phenanthren-17-yl)-4,4,6-trimethyl-8-oxa-2,6,9-triazaundec-9-en-7-one hydrochloride]
[2]; d (days)
  half-life: 547 h
[1]
  half-life: > 4 h

## C/C(=N\OC(=O)NCCCN)[C@H]1CC[C@H]2[C@@H]3CCC4=CC(=O)CC[C@]4(C)[C@H]3CC[C@]12C [32e, (8S,9S,10R,13S,14S,17S)-17-((E)-1-((((3-aminopropyl)carbamoyl)oxy)imino)ethyl)-10,13-dimethyl-1,2,6,7,8,9,10,11,12,13,14,15,16,17-tetradecahydro-3H-cyclopenta[a]phenanthren-3-one hydrochloride]
[2]; d (days)
  PBS t1/2: 120 days
[2]
  half-life at 1 mg/mL: 2880 h

## C/C(=N\OC(=O)OC[C@@H]1CCCN1)[C@H]1CCC2[C@@H]3CCC4=CC(=O)CC[C@]4(C)[C@H]3CC[C@@]21C.Cl (stereo partly drawn) [32n, (8S,9S,10R,13S,17S)-10,13-dimethyl-17-((E)-1-((((((S)-pyrrolidin-2-yl)methoxy)carbonyl)oxy)imino)ethyl)-1,2,6,7,8,9,10,11,12,13,14,15,16,17-tetradecahydro-3H-cyclopenta[a]phenanthren-3-one hydrochloride]
[2]
  half-life: 0.09 ± 0.01 h

## CNCCN(CCC(=O)O)C(=O)O/N=C(\C)[C@H]1CC[C@H]2[C@@H]3CCC4=CC(=O)CC[C@]4(C)[C@H]3CC[C@]12C.O=C(O)C(F)(F)F [53h, 3-((((((E)-1-((8S,9S,10R,13S,14S,17S)-10,13-dimethyl-3-oxo-2,3,6,7,8,9,10,11,12,13,14,15,16,17-tetradecahydro-1H-cyclopenta[a]phenanthren-17-yl)ethylidene)amino)oxy)carbonyl)(2-(methylamino)ethyl)amino) propanoic acid 2,2,2-trifluoroacetate]
[2]
  half-life: > 24 h

## C/C(=N\OC(=O)N(C)C[C@@H]1C[C@@H](O)CN1)[C@H]1CC[C@H]2[C@@H]3CCC4=CC(=O)CC[C@]4(C)[C@H]3CC[C@]12C.O=C(O)C(F)(F)F [32m, (8S,9S,10R,13S,14S,17S)-17-((E)-1-((((((2S,4R)-4-hydroxypyrrolidin-2-yl)methyl)(methyl)carbamoyl)oxy)imino)ethyl)-10,13-dimethyl-1,2,6,7,8,9,10,11,12,13,14,15,16,17-tetradecahydro-3H-cyclopenta[a]phenanthren-3-one 2,2,2-trifluoroacetate]
[2]
  half-life: 1.3 h
